From PubChem BioAssay (NCI)
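Cultured in 96-well plates, cells were exposed to test compound for 48 hours across five concentrations. The concentration for 50% growth inhibition is given as GI50. The concentration for full growth arrest is given as TGI.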

Experiments:
Assay in all cases: growth of human tumour cells (NCI), 48 h
[1] = tested on: SW-620 colon
[2] = tested on: NCI-H23 lung
[3] = tested on: SF-539 CNS
[4] = tested on: NCI-H226 lung
[5] = tested on: DMS 114 small cell lung
[6] = tested on: 786-0 renal
[7] = tested on: SK-MEL-28 melanoma
[8] = tested on: HL-60(TB) leukemia
[9] = tested on: SF-295 CNS
[10] = tested on: U251 CNS
[11] = tested on: SF-268 CNS
[12] = tested on: HOP-92 NSCLC
[13] = tested on: MALME-3M melanoma
[14] = tested on: IGROV1 ovarian
[15] = tested on: OVCAR-8 ovarian
[16] = tested on: UACC-257 melanoma
[17] = tested on: OVCAR-4 ovarian
[18] = tested on: CAKI-1 renal
[19] = tested on: M14 melanoma
[20] = tested on: HOP-18 NSCLC
[21] = tested on: DLD-1 colon
[22] = tested on: HCT-15 colon
[23] = tested on: NCI-H460 lung
[24] = tested on: ACHN renal
[25] = tested on: SN12C renal
[26] = tested on: SK-MEL-2 melanoma
[27] = tested on: SNB-78 CNS
[28] = tested on: HOP-62 NSCLC
[29] = tested on: MOLT-4 leukemia
[30] = tested on: EKVX NSCLC
[31] = tested on: HT29 colon
[32] = tested on: LXFL 529 NSCLC
[33] = tested on: M19-MEL melanoma
[34] = tested on: RPMI-8226 leukemia
[35] = tested on: HCC-2998 colon
[36] = tested on: A549 NSCLC
[37] = tested on: OVCAR-3 ovarian
[38] = tested on: DMS 273 small cell lung
[39] = tested on: HCT-116 colon
[40] = tested on: UACC-62 melanoma
[41] = tested on: SK-MEL-5 melanoma
[42] = tested on: NCI-H522 lung
[43] = tested on: SNB-75 CNS
[44] = tested on: KM20L2 colon
[45] = tested on: KM12 colon
[46] = tested on: COLO 205 colon
[47] = tested on: SK-OV-3 ovarian
[48] = tested on: OVCAR-5 ovarian
[49] = tested on: LOX IMVI melanoma

CC[O-].CC[O-].O=C1C(c2ccccc2)=C([O-])c2ccccc21.O=C1C(c2ccccc2)=C([O-])c2ccccc21.[Ti+4] showed a GI50 [1] of over 100 µM, a TGI [1] of over 100 µM and a GI50 [2] of over 100 µM. It also gave a TGI [2] of over 100 µM, a GI50 [3] of over 100 µM and a TGI [3] of over 100 µM. It also gave a GI50 [4] of over 100 µM, a TGI [4] of over 100 µM and a GI50 [5] of over 100 µM. For the same compound, the TGI [5] was over 100 µM, the GI50 [6] was over 100 µM and the TGI [6] was over 100 µM. It also gave a GI50 [7] of over 100 µM, a TGI [7] of over 100 µM and a GI50 [8] of over 100 µM. The TGI [8] was over 100 µM, the GI50 [9] was over 100 µM and the TGI [9] was over 100 µM. It also gave a GI50 [10] of over 100 µM, a TGI [10] of over 100 µM and a GI50 [11] of over 100 µM. It also gave a TGI [11] of over 100 µM, a GI50 [12] of over 100 µM and a TGI [12] of over 100 µM. It also gave a GI50 [13] of over 100 µM, a TGI [13] of over 100 µM and a GI50 [14] of over 100 µM. The TGI [14] was over 100 µM, the GI50 [15] was over 100 µM and the TGI [15] was over 100 µM. The GI50 [16] was over 100 µM, the TGI [16] was over 100 µM and the GI50 [17] was over 100 µM. For the same compound, the TGI [17] was over 100 µM, the GI50 [18] was over 100 µM and the TGI [18] was over 100 µM. The GI50 [19] was over 100 µM, the TGI [19] was over 100 µM and the GI50 [20] was over 100 µM. For the same compound, the TGI [20] was over 100 µM, the GI50 [21] was over 100 µM and the TGI [21] was over 100 µM. For the same compound, the GI50 [22] was over 100 µM, the TGI [22] was over 100 µM and the GI50 [23] was over 100 µM. The TGI [23] was over 100 µM, the GI50 [24] was over 100 µM and the TGI [24] was over 100 µM. It also gave a GI50 [25] of over 100 µM, a TGI [25] of over 100 µM and a GI50 [26] of over 100 µM. For the same compound, the TGI [26] was over 100 µM, the GI50 [27] was over 100 µM and the TGI [27] was over 100 µM. It also gave a GI50 [28] of over 100 µM, a TGI [28] of over 100 µM and a GI50 [29] of over 100 µM. The TGI [29] was over 100 µM, the GI50 [30] was 60.1 µM and the TGI [30] was over 100 µM. The GI50 [31] was over 100 µM, the TGI [31] was over 100 µM and the GI50 [32] was over 100 µM. It also gave a TGI [32] of over 100 µM, a GI50 [33] of over 100 µM and a TGI [33] of over 100 µM. For the same compound, the GI50 [34] was 30.3 µM, the TGI [34] was 99.5 µM and the GI50 [35] was over 100 µM. It also gave a TGI [35] of over 100 µM, a GI50 [36] of over 100 µM and a TGI [36] of over 100 µM. The GI50 [37] was over 100 µM, the TGI [37] was over 100 µM and the GI50 [38] was over 100 µM. For the same compound, the TGI [38] was over 100 µM, the GI50 [39] was over 100 µM and the TGI [39] was over 100 µM. For the same compound, the GI50 [40] was 72.6 µM, the TGI [40] was over 100 µM and the GI50 [41] was over 100 µM. For the same compound, the TGI [41] was over 100 µM, the GI50 [42] was over 100 µM and the TGI [42] was over 100 µM. For the same compound, the GI50 [43] was over 100 µM, the TGI [43] was over 100 µM and the GI50 [44] was over 100 µM. It also gave a TGI [44] of over 100 µM, a GI50 [45] of 62.9 µM and a TGI [45] of over 100 µM. The GI50 [46] was over 100 µM, the TGI [46] was over 100 µM and the GI50 [47] was over 100 µM. For the same compound, the TGI [47] was over 100 µM, the GI50 [48] was over 100 µM and the TGI [48] was over 100 µM. It also gave a GI50 [49] of over 100 µM and a TGI [49] of over 100 µM.
